Patent publication US5506102A (priority 1993, dated 1996)

Target: T1, human estrogen receptor (Homo sapiens, UniProt P03372)
T1 construct: expressed in transfected cells; host or cells: CV-1
T1 sequence (P03372 1-595): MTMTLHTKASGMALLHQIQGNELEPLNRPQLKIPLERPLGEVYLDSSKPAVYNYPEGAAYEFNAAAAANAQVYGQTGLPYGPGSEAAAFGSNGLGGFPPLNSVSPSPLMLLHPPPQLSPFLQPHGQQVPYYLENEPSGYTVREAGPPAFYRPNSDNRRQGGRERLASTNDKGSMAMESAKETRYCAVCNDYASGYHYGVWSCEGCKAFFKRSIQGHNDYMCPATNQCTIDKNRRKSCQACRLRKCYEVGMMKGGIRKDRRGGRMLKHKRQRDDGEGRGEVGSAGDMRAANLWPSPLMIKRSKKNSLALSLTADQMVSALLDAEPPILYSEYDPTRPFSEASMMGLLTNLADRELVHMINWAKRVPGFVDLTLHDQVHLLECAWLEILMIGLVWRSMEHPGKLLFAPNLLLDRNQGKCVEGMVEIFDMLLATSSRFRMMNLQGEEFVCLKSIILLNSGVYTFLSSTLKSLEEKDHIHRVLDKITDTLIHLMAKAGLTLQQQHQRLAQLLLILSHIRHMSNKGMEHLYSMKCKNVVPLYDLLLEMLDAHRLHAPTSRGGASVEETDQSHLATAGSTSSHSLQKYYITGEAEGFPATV
Assay: ER transcriptional activity on MMTV-ERE-LUC, CV-1 cells, ER alone
Assay type: cell-based
Settings: 10^-7 M 17β-estradiol
Description: All values were normalized for transfection efficiency by simultaneous estimation of luciferase and β-galactocidase activities. The relative luciferase activity is calculated by dividing the normalized luciferase value at a given point by that obtained in the absence of transfected receptor or ligand. Data shown represent the mean +/- the average deviation from the mean of triplicate estimations.
Experimental protocols and data calculation are as described in FIG. 11. The experiment detailed above is representative of independent assays (N>3). Data shown represent the mean +/- the average deviation from the mean of triplicate estimations.
Vegeto et al., supra. Cells were plated into 96-well tissue culture plates. The vector DNA was introduced into the CV-1 cells using calcium phosphate coprecipitation as described herein. More specifically, 20 μg of DNA/ml of transfection buffer were used in each transfection. […] The concentration of pXVhPR-A vector chosen was determined by performing the experiment at several different concentrations of vector, and then using that concentration that was optimal for transcriptional readout. […] The Normalized LUC activity was calculated by dividing the raw luciferase (×10^4) units for each point by the β-galactosidase activity [(OD415 nm ×10^5)/time min.] at that point.

CC(=O)[C@H]1CC[C@H]2[C@@H]3CCC4=CC(=O)CC[C@]4(C)[C@H]3CC[C@]12C [progesterone]
direct effects on ER: no direct effects on ER were observed
